Measurements as given in ChEMBL document CHEMBL2380271, “Synthesis and biological evaluation of a class of quinolone triazoles as potential antimicrobial agents and their interactions with calf thymus DNA” (2013).
≈ marks a conversion by molar mass, not a printed value. Calls of active or inactive are those of the source. The rule behind the calls is not given here.

Legend:
Pseudomonas aeruginosa = assay: Antibacterial activity against Pseudomonas aeruginosa by NCCLS method; format: functional
Salmonella typhi = assay: Antibacterial activity against Eberthella typhosa by NCCLS method; format: functional, Salmonella enterica subsp. enterica serovar Typhi; settings: Salmonella enterica
Cyberlindnera jadinii = assay: Antifungal activity against Candida utilis by NCCLS method; format: functional; settings: Williopsis jadinii
Escherichia coli = assay: Antibacterial activity against Escherichia coli DH52 by NCCLS method; format: functional
Staphylococcus aureus [1] = assay: Antibacterial activity against Staphylococcus aureus ATCC 25923 by NCCLS method; format: functional
Staphylococcus aureus [2] = assay: Antibacterial activity against methicillin-resistant Staphylococcus aureus N315 by NCCLS method; format: functional
Aspergillus flavus [3] = assay: Antifungal activity against Aspergillus flavus by NCCLS method; format: functional
Saccharomyces cerevisiae = assay: Antifungal activity against Saccharomyces cerevisiae by NCCLS method; format: functional
Shigella dysenteriae = assay: Antibacterial activity against Shigella dysenteriae by NCCLS method; format: functional
Candida albicans = assay: Antifungal activity against Candida albicans by NCCLS method; format: functional
Micrococcus luteus = assay: Antibacterial activity against Micrococcus luteus ATCC 4698 by NCCLS method; format: functional
Staphylococcus aureus [4] = assay: Ratio of norfloxacin MIC to compound MIC for methicillin-resistant Staphylococcus aureus N315; format: functional
Staphylococcus aureus [5] = assay: Ratio of chloromycin MIC to compound MIC for methicillin-resistant Staphylococcus aureus N315; format: functional
Aspergillus flavus [6] = assay: Ratio of Fluconazole MIC to compound MIC for Aspergillus flavus; format: functional
DNA [7] = assay: Binding affinity to calf thymus DNA-NR complex assessed as decrease in fluorescence intensity at 640 nm wavelength; format: nucleic-acid assay; settings: Bos taurus
DNA [8] = assay: Binding affinity to calf thymus DNA at 0.5 to 3x10'-5 mol/L by fluorescence quenching assay; format: nucleic-acid assay; settings: Bos taurus
DNA [9] = assay: Binding affinity to calf thymus DNA by fluorescence quenching assay in presence of potassium iodide; format: nucleic-acid assay; settings: Bos taurus
DNA [10] = assay: Binding affinity to calf thymus DNA assessed as blue shift by UV-vis spectroscopic analysis; format: nucleic-acid assay; settings: Bos taurus
DNA [11] = assay: Binding affinity to calf thymus DNA-NR complex assessed as increase in fluorescence intensity at 726 nm wavelength; format: nucleic-acid assay; settings: Bos taurus
DNA [12] = assay: Competitive binding affinity to calf thymus DNA by UV-vis spectroscopic analysis in presence of neutral red; format: nucleic-acid assay; settings: Bos taurus

O=C(O)c1cn(CC(O)Cn2cncn2)c2cc(Cl)c(F)cc2c1=O (stereo not given)
MIC (Pseudomonas aeruginosa): 2 µg/mL (≈ 5.45 µM)
MIC (Salmonella typhi): 4 µg/mL (≈ 10.9 µM)
MIC (Cyberlindnera jadinii): > 512 µg/mL
MIC (Escherichia coli): 8 µg/mL (≈ 21.8 µM)
MIC (Staphylococcus aureus [1]): 64 µg/mL (≈ 175 µM)
MIC (Staphylococcus aureus [2]): 64 µg/mL (≈ 175 µM)
MIC (Aspergillus flavus [3]): 128 µg/mL (≈ 349 µM)
MIC (Saccharomyces cerevisiae): 256 µg/mL (≈ 698 µM)
MIC (Shigella dysenteriae): 64 µg/mL (≈ 175 µM)
MIC (Candida albicans): 16 µg/mL (≈ 43.6 µM)
MIC (Micrococcus luteus): 16 µg/mL (≈ 43.6 µM)

O=C(O)c1cn(CC(O)Cn2cncn2)c2ccc(F)cc2c1=O (stereo not given)
Ratio (Staphylococcus aureus [4]): 8
MIC (Pseudomonas aeruginosa): 8 µg/mL (≈ 24.1 µM)
MIC (Salmonella typhi): 1 µg/mL (≈ 3.01 µM)
MIC (Cyberlindnera jadinii): > 512 µg/mL
MIC (Escherichia coli): 32 µg/mL (≈ 96.3 µM)
MIC (Staphylococcus aureus [1]): 128 µg/mL (≈ 385 µM)
Ratio (Staphylococcus aureus [5]): 16
MIC (Staphylococcus aureus [2]): 1 µg/mL (≈ 3.01 µM)
MIC (Aspergillus flavus [3]): 512 µg/mL (≈ 1540 µM)
MIC (Saccharomyces cerevisiae): 512 µg/mL (≈ 1540 µM)
MIC (Shigella dysenteriae): 0.5 µg/mL (≈ 1.5 µM)
MIC (Candida albicans): 64 µg/mL (≈ 193 µM)
MIC (Micrococcus luteus): 32 µg/mL (≈ 96.3 µM)

CCOC(=O)c1cn(CC2CO2)c2ccc(C)cc2c1=O (racemic)
MIC (Pseudomonas aeruginosa): 32 µg/mL (≈ 111 µM)
MIC (Salmonella typhi): 2 µg/mL (≈ 6.96 µM)
MIC (Cyberlindnera jadinii): 256 µg/mL (≈ 891 µM)
MIC (Escherichia coli): 128 µg/mL (≈ 446 µM)
MIC (Staphylococcus aureus [1]): 256 µg/mL (≈ 891 µM)
MIC (Staphylococcus aureus [2]): 16 µg/mL (≈ 55.7 µM)
MIC (Aspergillus flavus [3]): 16 µg/mL (≈ 55.7 µM)
MIC (Saccharomyces cerevisiae): 64 µg/mL (≈ 223 µM)
MIC (Shigella dysenteriae): 128 µg/mL (≈ 446 µM)
MIC (Candida albicans): 2 µg/mL (≈ 6.96 µM)
MIC (Micrococcus luteus): 32 µg/mL (≈ 111 µM)

CCOC(=O)c1cn(CC2CO2)c2c(Cl)cc(Cl)cc2c1=O (racemic)
MIC (Pseudomonas aeruginosa): 0.5 µg/mL (≈ 1.46 µM)
MIC (Salmonella typhi): 2 µg/mL (≈ 5.84 µM)
MIC (Cyberlindnera jadinii): > 512 µg/mL
MIC (Escherichia coli): 32 µg/mL (≈ 93.5 µM)
MIC (Staphylococcus aureus [1]): 1 µg/mL (≈ 2.92 µM)
MIC (Staphylococcus aureus [2]): 2 µg/mL (≈ 5.84 µM)
MIC (Aspergillus flavus [3]): 0.5 µg/mL (≈ 1.46 µM)
MIC (Saccharomyces cerevisiae): 8 µg/mL (≈ 23.4 µM)
MIC (Shigella dysenteriae): > 512 µg/mL
Ratio (Aspergillus flavus [6]): 256
MIC (Candida albicans): 2 µg/mL (≈ 5.84 µM)
MIC (Micrococcus luteus): > 512 µg/mL

CCOC(=O)c1cn(CC(O)Cn2cncn2)c2c(F)cc(F)cc2c1=O (racemic)
MIC (Pseudomonas aeruginosa): 4 µg/mL (≈ 10.6 µM)
MIC (Salmonella typhi): 0.5 µg/mL (≈ 1.32 µM)
MIC (Cyberlindnera jadinii): > 512 µg/mL
MIC (Escherichia coli): 8 µg/mL (≈ 21.1 µM)
MIC (Staphylococcus aureus [1]): 1 µg/mL (≈ 2.64 µM)
MIC (Staphylococcus aureus [2]): 32 µg/mL (≈ 84.6 µM)
MIC (Aspergillus flavus [3]): 64 µg/mL (≈ 169 µM)
MIC (Saccharomyces cerevisiae): 512 µg/mL (≈ 1350 µM)
MIC (Shigella dysenteriae): 32 µg/mL (≈ 84.6 µM)
MIC (Candida albicans): 64 µg/mL (≈ 169 µM)
MIC (Micrococcus luteus): 2 µg/mL (≈ 5.29 µM)

CCOC(=O)c1cn(CC2CO2)c2cc(C(F)(F)F)ccc2c1=O (racemic)
Ratio (Staphylococcus aureus [4]): 16
MIC (Pseudomonas aeruginosa): 64 µg/mL (≈ 188 µM)
MIC (Salmonella typhi): 2 µg/mL (≈ 5.86 µM)
MIC (Cyberlindnera jadinii): > 512 µg/mL
MIC (Escherichia coli): 64 µg/mL (≈ 188 µM)
MIC (Staphylococcus aureus [1]): 256 µg/mL (≈ 750 µM)
Ratio (Staphylococcus aureus [5]): 32
MIC (Staphylococcus aureus [2]): 0.5 µg/mL (≈ 1.47 µM)
MIC (Aspergillus flavus [3]): 0.5 µg/mL (≈ 1.47 µM)
MIC (Saccharomyces cerevisiae): 8 µg/mL (≈ 23.4 µM)
MIC (Shigella dysenteriae): 256 µg/mL (≈ 750 µM)
Ratio (Aspergillus flavus [6]): 256
MIC (Candida albicans): 4 µg/mL (≈ 11.7 µM)
MIC (Micrococcus luteus): 128 µg/mL (≈ 375 µM)

CCOC(=O)c1cn(CC(O)Cn2cncn2)c2ccc(C)cc2c1=O (racemic)
MIC (Pseudomonas aeruginosa): 2 µg/mL (≈ 5.61 µM)
MIC (Salmonella typhi): 4 µg/mL (≈ 11.2 µM)
MIC (Cyberlindnera jadinii): > 512 µg/mL
MIC (Escherichia coli): 4 µg/mL (≈ 11.2 µM)
MIC (Staphylococcus aureus [1]): 64 µg/mL (≈ 180 µM)
MIC (Staphylococcus aureus [2]): 2 µg/mL (≈ 5.61 µM)
MIC (Aspergillus flavus [3]): 256 µg/mL (≈ 718 µM)
MIC (Saccharomyces cerevisiae): 64 µg/mL (≈ 180 µM)
MIC (Shigella dysenteriae): 4 µg/mL (≈ 11.2 µM)
MIC (Candida albicans): 128 µg/mL (≈ 359 µM)
MIC (Micrococcus luteus): 16 µg/mL (≈ 44.9 µM)

O=C(N[C@H](CO)[C@H](O)c1ccc([N+](=O)[O-])cc1)C(Cl)Cl [CHLORAMPHENICOL]
MIC (Pseudomonas aeruginosa): 32 µg/mL (≈ 99 µM)
MIC (Salmonella typhi): 32 µg/mL (≈ 99 µM)
MIC (Cyberlindnera jadinii): > 512 µg/mL
MIC (Escherichia coli): 32 µg/mL (≈ 99 µM)
MIC (Staphylococcus aureus [1]): 16 µg/mL (≈ 49.5 µM)
MIC (Staphylococcus aureus [2]): 16 µg/mL (≈ 49.5 µM)
MIC (Aspergillus flavus [3]): > 512 µg/mL
MIC (Saccharomyces cerevisiae): > 512 µg/mL
MIC (Shigella dysenteriae): 32 µg/mL (≈ 99 µM)
MIC (Candida albicans): > 512 µg/mL
MIC (Micrococcus luteus): 8 µg/mL (≈ 24.8 µM)

O=C(O)c1cn(CC(O)Cn2cncn2)c2cc(C(F)(F)F)ccc2c1=O (stereo not given)
Ratio (Staphylococcus aureus [4]): 8
MIC (Pseudomonas aeruginosa): 8 µg/mL (≈ 20.9 µM)
MIC (Salmonella typhi): 4 µg/mL (≈ 10.5 µM)
MIC (Cyberlindnera jadinii): > 512 µg/mL
MIC (Escherichia coli): 8 µg/mL (≈ 20.9 µM)
MIC (Staphylococcus aureus [1]): 1 µg/mL (≈ 2.62 µM)
Ratio (Staphylococcus aureus [5]): 16
MIC (Staphylococcus aureus [2]): 1 µg/mL (≈ 2.62 µM)
MIC (Aspergillus flavus [3]): 512 µg/mL (≈ 1340 µM)
MIC (Saccharomyces cerevisiae): 256 µg/mL (≈ 670 µM)
MIC (Shigella dysenteriae): 1 µg/mL (≈ 2.62 µM)
MIC (Candida albicans): 1 µg/mL (≈ 2.62 µM)
MIC (Micrococcus luteus): 2 µg/mL (≈ 5.23 µM)

CCOC(=O)c1cn(CC(O)Cn2cncn2)c2cc(C(F)(F)F)ccc2c1=O (racemic)
MIC (Pseudomonas aeruginosa): 1 µg/mL (≈ 2.44 µM)
MIC (Salmonella typhi): 0.5 µg/mL (≈ 1.22 µM)
MIC (Cyberlindnera jadinii): 128 µg/mL (≈ 312 µM)
MIC (Escherichia coli): 32 µg/mL (≈ 78 µM)
MIC (Staphylococcus aureus [1]): 16 µg/mL (≈ 39 µM)
MIC (Staphylococcus aureus [2]): 32 µg/mL (≈ 78 µM)
MIC (Aspergillus flavus [3]): 8 µg/mL (≈ 19.5 µM)
MIC (Saccharomyces cerevisiae): 64 µg/mL (≈ 156 µM)
MIC (Shigella dysenteriae): 32 µg/mL (≈ 78 µM)
MIC (Candida albicans): 64 µg/mL (≈ 156 µM)
MIC (Micrococcus luteus): 2 µg/mL (≈ 4.87 µM)

Cc1ccc2c(c1)c(=O)c(C(=O)O)cn2CC(O)Cn1cncn1 (stereo not given)
MIC (Pseudomonas aeruginosa): 16 µg/mL (≈ 48.7 µM)
MIC (Salmonella typhi): 8 µg/mL (≈ 24.4 µM)
Activity (DNA [7]): Active
Activity (DNA [8]): Active
MIC (Cyberlindnera jadinii): > 512 µg/mL
KSV (DNA [9]): 6.53 L/mol
MIC (Escherichia coli): 32 µg/mL (≈ 97.5 µM)
MIC (Staphylococcus aureus [1]): 32 µg/mL (≈ 97.5 µM)
K (DNA [10]): 1.43 ×10³ L/mol
Activity (DNA [11]): Active
MIC (Staphylococcus aureus [2]): 8 µg/mL (≈ 24.4 µM)
MIC (Aspergillus flavus [3]): 0.5 µg/mL (≈ 1.52 µM)
MIC (Saccharomyces cerevisiae): 4 µg/mL (≈ 12.2 µM)
Activity (DNA [12]): Active
MIC (Shigella dysenteriae): 32 µg/mL (≈ 97.5 µM)
MIC (Candida albicans): 2 µg/mL (≈ 6.09 µM)
MIC (Micrococcus luteus): 16 µg/mL (≈ 48.7 µM)
